Where no end group is shown, it is not given here.
Columns and labels:
[1] = mouse, in vivo
[2] = mouse
SARS-CoV-2 E (2E) [3] = biological target: T1, SARS-CoV-2 E (2E) (Severe acute respiratory syndrome coronavirus 2, UniProt P0DTC4); format: cell-based
HCoV-NL63 E protein [4] = biological target: T2, HCoV-NL63 E protein (Human coronavirus NL63, UniProt Q6Q1S0); format: cell-based; conditions: construct co-transfection, HEK 293T
HCoV-NL63 E protein [5] = biological target: T2, HCoV-NL63 E protein; format: cell-based; conditions: construct co-transfection, NIH 3T3
Procedure: (§1) For the imaging experiments in FIGS. 1a-1e and 7a-7f, NIH 3T3 cells were plated at a cell density of 2.5×10^5 cells/ml. The following day, the cells were transfected using Lipofectamine 3000 reagents (Thermo-Fisher, #L3000001). 4 μg of plasmid were mixed into 125 μL of serum-free OptiMEM with 5 μL of P3000 reagent. This was then added to another 125 μL of serum-free OptiMEM containing 7.5 μL of Lipofectamine 3000. Plasmid/P3000-lipofectamine complex was incubated for 15 minutes at room temperature, and then added to the plate. The medium was replaced 20-24 h after transfection, and 1 μM of Lysosensor Green DND-189 (Thermo-Fisher, L7535) was added. The cells were incubated for 30 minutes in a 37° C., 5% CO2 incubator. The medium was replaced one final time prior to imaging. The live cell imaging was conducted on a customized/automated fluorescence microscope (Ti—U, Nikon) using an environmental chamber (TOKAI) and the culture medium to maintain normal cell culture conditions (37° C., 5% CO2, 20% O2). […] Fluorescence quantification and analysis was performed with ImageJ software and Prism 7/8/9 (GraphPad). Representative images were also gathered on a Leica DMi8 confocal microscope. The following peptides (>95% purity) were synthesized by Thermo-Fisher/Pierce: […]

MERS-CoV E protein = MERS-CoV E protein (Middle East respiratory syndrome-related coronavirus, UniProt K9N5R3); format: cell-based
Chain of MERS-CoV E protein (K9N5R3 whole entry, looked up): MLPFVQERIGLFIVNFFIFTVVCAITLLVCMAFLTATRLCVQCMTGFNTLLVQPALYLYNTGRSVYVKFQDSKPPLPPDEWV

SARS-CoV-2 E (2E) [6] = biological target: T1, SARS-CoV-2 E (2E)
2E protein = 2E protein (Severe acute respiratory syndrome coronavirus 2, UniProt P0DTC4)
Chain of 2E protein (P0DTC4 whole entry, looked up): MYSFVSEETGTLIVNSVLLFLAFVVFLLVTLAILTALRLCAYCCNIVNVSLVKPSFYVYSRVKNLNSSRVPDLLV

HCoV-HKU1 E protein = HCoV-HKU1 E protein (Human coronavirus HKU1, UniProt Q5MQC8); format: cell-based; conditions: construct co-transfection, NIH 3T3
Chain of HCoV-HKU1 E protein (Q5MQC8 whole entry, looked up): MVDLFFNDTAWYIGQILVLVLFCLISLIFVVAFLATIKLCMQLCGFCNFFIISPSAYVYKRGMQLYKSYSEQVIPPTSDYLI
Procedure: as §1

T1 sequence (P0DTC4 whole entry, looked up): as the sequence (P0DTC4 whole entry, looked up) above
T2 sequence (Q6Q1S0 whole entry, looked up): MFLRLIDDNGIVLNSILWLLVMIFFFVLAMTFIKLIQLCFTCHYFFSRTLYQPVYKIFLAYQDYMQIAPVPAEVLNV

What does the source list for “GRKKRRQRRRPPQ-MYSFVSDDTGTLIVNSVL-L[C]AlexaFluo594 [TAT-MY18-2ED-Alexa Fluor 594]”?
Cell-penetrating "on" kinetics (NIH 3T3 cells): faster cell-penetrating than N-terminal version; Detection of fluorescent peptide in nasal tissues [1]: can permeate and is detectable in mouse nasal tissues; Detection of fluorescent peptide in lung tissues ([1]; iv): can permeate and is detectable in mouse lung tissues; Penetration into cells (Vero-E6 cells): can penetrate into these cells

For “GRKKRRQRRRPPQMYSFVSDDTGTLIVNSVL [iPep-SARS2-E]”, which Toxicity in vivo [2] is on record?
Its Toxicity in vivo is “no obvious toxicity”.

And the Body weight ([2]; in vivo)?
Its Body weight is “did not find that there are differences”.

What about the “C5a (inflammation marker)” value ([2]; in vivo) of the same substance?
The value was “did not find that there are differences”.

And the “Cxc112 (inflammation marker)” value ([2]; in vivo)?
The value was “did not find that there are differences”.

What about the IC50 (SARS-CoV-2 WA1 virus; WA1 virus) of the same substance?
The IC50 was ~0.2 µM.

Which results are given for “GRKKRRQRRRPPQMYSFVSEETGTLIVNSVL [TAT-MY18]”?
Effect of synthetic peptide on 2E in DND-189-based pH imaging (SARS-CoV-2 E (2E) [3]): effective cell-penetrating peptide; Relative fluorescent intensity of DND-189 dye compared to mock (SARS-CoV-2 E (2E) [3]): not different from mock

With MFLRLIDDNGIVLNSILW [HCoV-NL63 MY18 WT] as the substance, how does the “Relative NFAT-FLuc/TK-RLuc activity (effect of NL63-E)” value (HCoV-NL63 E protein [4]) read?
The value was “could significantly reduce the effect of each E on NFAT/AP-1 reporter”.

With “MFLRLIEEDGIVLNSILW [HCoV-NL63 MY18 2DE & N9D]” as the substance, how does the “DND-189 fluorescence (proton homeostasis), HCoV-NL63 E” value (HCoV-NL63 E protein [5]) read?
The value was “could significantly rescue the phenotypes in proton homeostasis”.

And the “Relative NFAT-FLuc/TK-RLuc activity (effect of NL63-E)” value (HCoV-NL63 E protein [4])?
Its value is “effective to inhibit the cellular toxicity”.

Which “Relative NFAT-FLuc/TK-RLuc activity (effect of MERS-E)” value (MERS-CoV E protein) does the source give for MLPFVQERIGLFIVNFFI [MERS-CoV MY18 WT] here?
Its value is “could significantly reduce the effect of each E on NFAT/AP-1 reporter”.

With MYSFVSDDTGTLIVNSVL [MY18-2ED] as the substance, how does the “Relative NFAT-FLuc/TK-RLuc activity (effect of 2E on NFAT/AP-1 pathway)” value (SARS-CoV-2 E (2E) [6]) read?
Its value is “significantly improves the inhibitory effect”.

What does the source list for MYSFVSEETGTLIVNSVL [MY18]?
Inhibition of viral toxicity (cytopathic effect) (SARS-CoV-2 WA1 virus): moderate inhibitory effect on the virus; Co-localization with 2E proteins (2E protein): co-localized with 2E proteins; Effect of synthetic peptide on 2E in DND-189-based pH imaging (SARS-CoV-2 E (2E) [3]): does not have any effect on 2E; Relative NFAT-FLuc/TK-RLuc activity (effect of 2E on NFAT/AP-1 pathway) (SARS-CoV-2 E (2E) [6]): significantly suppresses the effect of 2E on the NFAT/AP-1 pathway

For “RQIKIWFQNRRMKWKKMYSFVSEETGTLIVNSVL [Pen-MY18]”, which “Relative fluorescent intensity of DND-189 dye compared to mock” value (SARS-CoV-2 E (2E) [3]) is on record?
The value was “significantly lower than mock”.

Which “Relative fluorescent intensity of DND-189 dye compared to mock” value (SARS-CoV-2 E (2E) [3]) does the source give for RRRRRRMYSFVSEETGTLIVNSVL [6Arg-MY18] here?
The value was “significantly lower than mock”.

With VDLFFNETAWYIGQILV [HCoV-HKU1 MY18 D8E] as the substance, how does the “DND-189 fluorescence (proton homeostasis), HCoV-HKU1 E” value (HCoV-HKU1 E protein) read?
The value was “could significantly rescue the phenotypes in proton homeostasis”.

Source: patent publication US20250026796A1 (priority 2022, published 2025)
